Results taken from patent US9573911B2, “Diphosphate mimetics and uses thereof” (President and Fellows of Harvard College, priority 2011, dated 2017).

Legend:
Experiment in all cases: Kinase profiling, Invitrogen Z'-LYTE
Type in all cases: biochemical
Settings in all cases: Table 2
AURKA (Aurora A) = target: T1, AURKA (Aurora A) (Homo sapiens, UniProt O14965)
T1 construct: purchased Invitrogen
T1 sequence (O14965 1-403): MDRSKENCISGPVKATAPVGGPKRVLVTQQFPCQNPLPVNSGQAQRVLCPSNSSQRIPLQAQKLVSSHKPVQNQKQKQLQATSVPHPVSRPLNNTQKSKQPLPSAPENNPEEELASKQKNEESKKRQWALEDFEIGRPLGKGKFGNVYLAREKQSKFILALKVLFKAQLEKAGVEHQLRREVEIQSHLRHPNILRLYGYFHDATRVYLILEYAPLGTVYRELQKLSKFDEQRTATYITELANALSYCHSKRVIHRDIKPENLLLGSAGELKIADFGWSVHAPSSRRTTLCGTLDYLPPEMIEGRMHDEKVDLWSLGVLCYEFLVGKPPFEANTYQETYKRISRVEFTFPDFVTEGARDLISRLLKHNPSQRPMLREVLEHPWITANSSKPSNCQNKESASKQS
Description: (§1) Kinase profiling was conducted using Invitrogen Z'-LYTE screening protocol and assay conditions found at www.invitrogen.com. Compound (2) inhibited PLK1 completely at 5 μM.

FGR = target: T2, FGR (Homo sapiens, UniProt P09769)
T2 construct: purchased Invitrogen
T2 sequence (P09769 whole entry): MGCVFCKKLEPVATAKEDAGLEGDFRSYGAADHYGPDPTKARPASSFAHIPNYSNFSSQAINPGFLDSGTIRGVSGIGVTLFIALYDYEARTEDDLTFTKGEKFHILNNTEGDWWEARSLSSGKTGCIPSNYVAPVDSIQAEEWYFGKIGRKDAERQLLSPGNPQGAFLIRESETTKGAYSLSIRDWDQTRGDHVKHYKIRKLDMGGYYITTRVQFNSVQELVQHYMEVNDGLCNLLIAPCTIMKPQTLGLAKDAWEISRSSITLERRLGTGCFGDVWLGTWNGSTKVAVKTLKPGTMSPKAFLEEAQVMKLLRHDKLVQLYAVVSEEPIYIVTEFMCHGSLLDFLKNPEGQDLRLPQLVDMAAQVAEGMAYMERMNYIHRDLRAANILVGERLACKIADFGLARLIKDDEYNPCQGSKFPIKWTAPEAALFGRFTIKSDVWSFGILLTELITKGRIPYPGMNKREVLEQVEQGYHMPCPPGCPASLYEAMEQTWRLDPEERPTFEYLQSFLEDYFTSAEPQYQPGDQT
Description: as §1

FLT3 D835Y = target: T3, FLT3 D835Y (Homo sapiens, UniProt P36888, D835Y)
T3 construct: purchased Invitrogen
T3 sequence (P36888 27-993 D835Y): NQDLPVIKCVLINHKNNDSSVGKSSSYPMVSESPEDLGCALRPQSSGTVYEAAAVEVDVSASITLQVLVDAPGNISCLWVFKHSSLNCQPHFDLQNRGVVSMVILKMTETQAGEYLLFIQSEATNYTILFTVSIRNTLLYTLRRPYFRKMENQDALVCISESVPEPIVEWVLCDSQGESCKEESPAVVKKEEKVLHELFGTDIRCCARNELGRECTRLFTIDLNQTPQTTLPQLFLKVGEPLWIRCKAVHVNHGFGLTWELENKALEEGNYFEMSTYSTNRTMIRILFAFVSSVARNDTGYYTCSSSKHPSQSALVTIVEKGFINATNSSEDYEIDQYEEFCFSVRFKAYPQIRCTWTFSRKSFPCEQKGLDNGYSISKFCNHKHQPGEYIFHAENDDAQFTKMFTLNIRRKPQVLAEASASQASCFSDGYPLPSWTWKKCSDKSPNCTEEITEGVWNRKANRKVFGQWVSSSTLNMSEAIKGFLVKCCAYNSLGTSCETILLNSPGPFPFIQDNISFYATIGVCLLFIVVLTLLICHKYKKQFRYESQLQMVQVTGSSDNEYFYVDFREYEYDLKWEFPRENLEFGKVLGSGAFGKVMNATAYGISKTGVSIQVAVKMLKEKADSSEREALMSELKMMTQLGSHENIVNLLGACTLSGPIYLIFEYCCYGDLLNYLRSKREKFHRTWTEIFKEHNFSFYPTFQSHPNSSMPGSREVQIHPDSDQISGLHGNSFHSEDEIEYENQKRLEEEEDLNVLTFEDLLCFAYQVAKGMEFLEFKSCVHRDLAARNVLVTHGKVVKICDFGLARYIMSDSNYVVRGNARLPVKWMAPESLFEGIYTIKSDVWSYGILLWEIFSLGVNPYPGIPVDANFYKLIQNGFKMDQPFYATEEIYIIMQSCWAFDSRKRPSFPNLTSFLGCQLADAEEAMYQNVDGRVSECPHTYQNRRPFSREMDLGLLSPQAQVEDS
Description: as §1

In the case of COc1ccc(OC(=O)n2c(=O)oc3cc(C(C)=O)ccc32)cc1 [Compound 2], the “% Inhibition Point 1” value (AURKA (Aurora A)) is reported as −146%, the “% Inhibition Point 2” value (AURKA (Aurora A)) is reported as −146% and the “% Inhibition mean” value (AURKA (Aurora A)) is reported as −146%. For the same compound, the “% Inhibition Point 1” value (FGR) was 21%, the “% Inhibition Point 2” value (FGR) was 21% and the “% Inhibition mean” value (FGR) was 21%. For the same compound, the “% Inhibition Point 1” value (FLT3 D835Y) was −41%, the “% Inhibition Point 2” value (FLT3 D835Y) was −43% and the “% Inhibition mean” value (FLT3 D835Y) was −42%.
